Laboratory results published in patent publication US20260206760A1, “AZOLE COMPOUNDS FOR CONTROLLING AND COMBATING INVERTEBRATE PESTS” (FMC CORPORATION, priority 2022, published 2026).

What was measured:
Type in all cases: in vivo
[1] = system: cotton melon aphid (Aphis gossypii (Glover)); test: whole plant or invertebrate; settings: 144 h, assessed after 6 days; for mortality at 50 ppm: sprayed at 50 ppm
Method: (§1) Test compounds were formulated using a solution containing 10% acetone, 90% water and 300 ppm Activator 90® non-ionic surfactant (Loveland Products, Loveland, Colorado, USA). The formulated compounds were applied in 1 mL of liquid through an atomizer nozzle positioned 1.27 cm (0.5 inches) above the top of each test unit. Test compounds were sprayed at the rates indicated, and each test was replicated three times.
For evaluating control of cotton melon aphid (Aphis gossypii (Glover)) through contact and/or systemic means, the test unit consisted of a small open container with a 5-day-old okra plant inside. This was pre-infested with 30-40 insects on a piece of leaf according to the cut-leaf method, and the soil of the test unit was covered with a layer of sand.
Test compounds were formulated and sprayed at 250 and/or 50 ppm. After spraying, the test units were maintained in a growth chamber for 6 days at 19° C. and 70% relative humidity. Each test unit was then visually assessed for insect mortality.

[2] = system: sweetpotato whitefly (Bemisia tabaci (Gennadius)); test: whole plant or invertebrate; settings: 312 h, sprayed at 50 ppm, eggs on cotton leaf, assessed after 13 days
Method: as §1
For evaluating control of the sweetpotato whitefly (Bemisia tabaci (Gennadius)) through contact and/or systemic means, the test unit consisted of a small open container with a 12-14-day-old cotton plant inside. Prior to the spray application, both cotyledons were removed from the plant, leaving one true leaf for the assay. Adult whiteflies were allowed to lay eggs on the plant and then were removed from the test unit. Cotton plants infested with at least 15 eggs were submitted to the test for spraying.
Test compounds were formulated and sprayed at 50 and/or 10 ppm. After spraying, the test units were allowed to dry for 1 hour. The cylinders were then removed, and the units were taken to a growth chamber and held for 13 days at 28° C. and 50-70% relative humidity. Each test unit was then visually assessed for insect mortality.

[3] = system: green peach aphid (Myzus persicae (Sulzer)); test: Test B: control of green peach aphid, spray on radish plant, visual mortality; settings: 144 h, assessed after 6 days; for mortality at 50 ppm: sprayed at 50 ppm
Method: as §1
For evaluating control of green peach aphid (Myzus persicae (Sulzer)) through contact and/or systemic means, the test unit consisted of a small open container with a 12-15-day-old radish plant inside. This was pre-infested by placing on a leaf of the test plant 30-40 aphids on a piece of leaf excised from a culture plant (cut-leaf method). The aphids moved onto the test plant as the leaf piece desiccated. After pre-infestation, the soil of the test unit was covered with a layer of sand.
(§2) Test compounds were formulated and sprayed at 250 and/or 50 ppm. After spraying of the formulated test compound, each test unit was allowed to dry for 1 hour and then a black, screened cap was placed on top. The test units were held for 6 days in a growth chamber at 19-21° C. and 50-70% relative humidity. Each test unit was then visually assessed for insect mortality.

[4] = system: diamondback moth (Plutella xylostella (L.)); settings: sprayed at 250 ppm; neonate larvae; assessed after 6 days; very good to excellent levels of control efficacy
Method: as §1
For evaluating control of diamondback moth (Plutella xylostella (L.)) the test unit consisted of a small open container with a 12-14-day-old mustard plant inside. This was pre-infested with ~50 neonate larvae that were dispensed into the test unit via corn cob grits using an inoculator. The larvae moved onto the test plant after being dispensed into the test unit.
as §2, with “25°” for “19-21°”, “70%” for “50-70%”, “Plant feeding damage” for “Each test unit”, “assessed based on foliage consumed, and larvae were assessed” for “assessed”, “for” for “for insect”

[5] = system: corn planthopper (Peregrinus maidis (Ashmead)); test: whole plant or invertebrate; settings: 144 h, sprayed at 50 ppm, nymphs, assessed after 6 days
Method: as §1
For evaluating control of corn planthopper (Peregrinus maidis (Ashmead)) through contact and/or systemic means, the test unit consisted of a small open container with a 3-4-day-old corn (maize) plant inside. White sand was added to the top of the soil prior to application of the test compound.
Test compounds were formulated and sprayed at 250 and/or 50 ppm and/or 10 ppm. After spraying of the formulated test compound, the test units were allowed to dry for 1 h before they were post-infested with ~15-20 nymphs (18-to-21-day-old). A black, screened cap was placed on the top of each test unit, and the test units were held for 6 days in a growth chamber at 22-24° C. and 50-70% relative humidity. Each test unit was then visually assessed for insect mortality.

Compound | mortality at 50 ppm [1] [%] | mortality at 250 ppm ([1]; sprayed at 250 ppm) [%] | mortality at 50 ppm [2] [%] | mortality at 50 ppm [3] [%] | mortality at 250 ppm ([3]; sprayed at 250 ppm) [%] | control efficacy (feeding damage and/or mortality) [4] | mortality at 50 ppm [5] [%]
Fc1cncc(-n2nccn2)c1C1CC1c1ccc(C(F)(F)F)cc1 (stereo not shown) [Compound 4, 3-fluoro-5-(triazol-2-yl)-4-[2-[4-(trifluoromethyl)phenyl]cyclopropyl]pyridine] | ≥ 80 | ≥ 80 | ≥ 70 | ≥ 80 | ≥ 80 | 40% or less feeding damage and/or 100% mortality | 
Fc1cncc(-n2ccnn2)c1C1CC1c1ccc(C(F)(F)F)cc1 (stereo not shown) [Compound 3, 3-fluoro-5-(triazol-1-yl)-4-[2-[4-(trifluoromethyl)phenyl]cyclopropyl]pyridine] |  |  |  |  |  | 40% or less feeding damage and/or 100% mortality | 
FC(F)(F)Oc1ccc(/C=C/c2ccncc2-n2nccn2)cc1 [Compound 1, 3-(1,2,3-triazol-2-yl)-4-[(1E)-2-[4-(trifluoromethoxy)phenyl]ethenyl]pyridine] | ≥ 80 |  |  | ≥ 80 |  |  | ≥ 80
